Experimental data as given in patent US11014884B2 (Global Blood Therapeutics, Inc., priority 2018, dated 2021).

What follows are molecules tested against T1, hemoglobin (Homo sapiens, UniProt P69905) (assay: Whole blood assay: oxygen equilibrium curves (Hemox Analyzer), change in p50). Conditions: whole blood 20% Hct (1 mM Hb), compound 1 mM, equimolar to hemoglobin, 1 h at 37° C.
T1 construct: from tissue; host or cells: whole blood (red blood cells)
T1 sequence (P69905 2-142 limits assumed): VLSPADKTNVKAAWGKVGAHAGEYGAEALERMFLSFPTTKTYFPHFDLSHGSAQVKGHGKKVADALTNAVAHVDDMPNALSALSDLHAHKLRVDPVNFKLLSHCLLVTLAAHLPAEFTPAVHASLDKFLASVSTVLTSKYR
T1 sequence (P68871 2-147 partner limits assumed): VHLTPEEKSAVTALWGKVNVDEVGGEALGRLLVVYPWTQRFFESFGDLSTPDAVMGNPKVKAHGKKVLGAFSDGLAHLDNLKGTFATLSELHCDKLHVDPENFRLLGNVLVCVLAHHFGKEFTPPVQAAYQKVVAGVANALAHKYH
Format: cell-based
Protocol: Oxygen equilibrium curves (OECs) were collected using a TCS Hemox Analyzer (TCS Scientific Company, New Hope, Pa., USA) to measure changes in the binding affinity of 02 to Hb. Whole blood was incubated for 1 h at 37° C. with the indicated compounds in an equimolar ratio of hemoglobin to compound and diluted into TES (2-[[1,3-dihydroxy-2-(hydroxymethyl)propan-2-yl]amino]ethanesulfonic acid)/saline buffer prior to measurements. For example, for whole blood at 20% hematocrit [Hct], which corresponds to 1 mM Hb, a compound concentration of 1 mM was used (for example, for compounds 1-53), and the incubated sample diluted 50- to 100-fold. The concentration for compound 54 was 1.7 mM and in equimolar ratio to hemoglobin. The diluted samples were then oxygenated with compressed air within the Hemox Analyzer, and the OECs were collected during deoxygenation as previously described (Guarnone et al., Haematologica, 1995, 80, 426-430). p50 (partial pressure of 02 at which Hb is 50% saturated with 02) values were obtained using a non-linear regression analysis. Percentage change in p50 [Δp50(%)] was calculated as follows: Δp50(%)=[(p50 of control)−p50 with compound)/p50 control]×100.
With O=Cc1ncc(-c2ncccc2COc2cccc(O)c2C=O)o1 [Compound 14, 5-(3-((2-formyl-3-hydroxyphenoxy)methyl)pyridin-2-yl)oxazole-2-carbaldehyde] the “Delta-p50 (%)” value was 17.8%. O=Cc1c(O)cccc1OC[C@@H]1CCCCCN1C(=O)c1cccc(O)c1C=O (stereo in doubt) [Compound 38, 2-{2-[(2-formyl-3-hydroxyphenoxy)methyl]azepane-1-carbonyl}-6-hydroxybenzaldehyde] was tested, and the “Delta-p50 (%)” value was 33.8%. For Cc1cccc(C(=O)N2CCCC[C@@H]2COc2cccc(O)c2C=O)c1C=O [Compound 46, 2-[(2R)-2-[(2-formyl-3-hydroxyphenoxy)methyl]piperidine-1-carbonyl]-6-methylbenzaldehyde], the “Delta-p50 (%)” value was 69%. CCOc1cccc(C(=O)N2CCCC[C@@H]2COc2cccc(O)c2C=O)c1C=O [Compound 50, 2-ethoxy-6-[(2R)-2-[(2-formyl-3-hydroxyphenoxy)methyl]piperidine-1-carbonyl]benzaldehyde] was tested, and the “Delta-p50 (%)” value was 45.3%. Cc1ccc(-c2ncccc2COc2cccc(O)c2C=O)nc1C=O [Compound 41, 3′-[(2-formyl-3-hydroxyphenoxy)methyl]-5-methyl-[2,2′-bipyridine]-6-carbaldehyde] was tested, and the “Delta-p50 (%)” value was 29.1%. In the case of O=Cc1c(O)cccc1OC[C@@H]1CCCCN1C(=O)c1cccc(F)c1C=O [Compound 47, 2-fluoro-6-[(2S)-2-[(2-formyl-3-hydroxyphenoxy)methyl]piperidine-1-carbonyl]benzaldehyde], the “Delta-p50 (%)” value is reported as 70%. With CC1(C)C[C@@H](COc2cccc(O)c2C=O)N(C(=O)c2ccccc2C=O)C1 [Compound 43, 2-{[(2S)-1-(2-formylbenzoyl)-4,4-dimethylpyrrolidin-2-yl]methoxy}-6-hydroxybenzaldehyde] the “Delta-p50 (%)” value was 70%. With O=Cc1cccc(-c2ncccc2COc2cccc(O)c2C=O)n1 [Compound 10, 3′-[(2-formyl-3-hydroxyphenoxy)methyl]-[2,2′-bipyridine]-6-carbaldehyde] the “Delta-p50 (%)” value was 0.2%. In the case of O=Cc1ccccc1N1C(=O)CC[C@H]1COc1cccc(O)c1C=O [Compound 21, 2-{[(2S)-1-(2-formylphenyl)-5-oxopyrrolidin-2-yl]methoxy}-6-hydroxybenzaldehyde], the “Delta-p50 (%)” value is reported as 23%. O=Cc1cc(-c2ncccc2COc2cccc(O)c2C=O)ccn1 [Compound 9, 3-[(2-formyl-3-hydroxyphenoxy)methyl]-[2,4′-bipyridine]-2′-carbaldehyde] was tested, and the “Delta-p50 (%)” value was 36.1%. O=Cc1cc(-c2ccccc2COc2cccc(O)c2C=O)co1 [Compound 18, 4-{2-[(2-formyl-3-hydroxyphenoxy)methyl]phenyl}furan-2-carbaldehyde] was tested, and the “Delta-p50 (%)” value was 17%. In the case of O=Cc1ccccc1C(=O)N1CCC[C@H]1COc1cccc(O)c1C=O [Compound 20, 2-{[(2S)-1-(2-formylbenzoyl)pyrrolidin-2-yl]methoxy}-6-hydroxybenzaldehyde], the “Delta-p50 (%)” value is reported as 32%. O=Cc1ccccc1C(=O)N1CCCC[C@@H]1COc1cccc(O)c1C=O [Compound 17, 2-{[(2R)-1-(2-formylbenzoyl)piperidin-2-yl]methoxy}-6-hydroxybenzaldehyde] was tested, and the “Delta-p50 (%)” value was 67%. COc1ccc(C=O)c(C(=O)N2CCCC[C@H]2COc2cccc(O)c2C=O)c1 [Compound 15, 2-[(2S)-2-[(2-formyl-3-hydroxyphenoxy)methyl]piperidine-1-carbonyl]-4-methoxybenzaldehyde] was tested, and the “Delta-p50 (%)” value was 19%. In the case of COc1cccc(C(=O)N2CCCC[C@@H]2COc2cccc(O)c2C=O)c1C=O [Compound 49, 2-[(2R)-2-[(2-formyl-3-hydroxyphenoxy)methyl]piperidine-1-carbonyl]-6-methoxybenzaldehyde], the “Delta-p50 (%)” value is reported as 59%. With O=Cc1c(O)cccc1OC[C@@H]1CCCCN1C(=O)c1cccc(Cl)c1C=O [Compound 51, 2-chloro-6-[(2S)-2-[(2-formyl-3-hydroxyphenoxy)methyl]piperidine-1-carbonyl]benzaldehyde] the “Delta-p50 (%)” value was 65.5%. O=Cc1cccc(-c2ccncc2COc2cccc(O)c2C=O)n1 [Compound 42, 3′-[(2-formyl-3-hydroxyphenoxy)methyl]-[2,4′-bipyridine]-6-carbaldehyde] was tested, and the “Delta-p50 (%)” value was 17.4%. With O=Cc1c(O)cccc1OC[C@@H]1CCCN1C(=O)c1cccc(O)c1C=O [Compound 30, 2-[(2S)-2-[(2-formyl-3-hydroxyphenoxy)methyl]pyrrolidine-1-carbonyl]-6-hydroxybenzaldehyde] the “Delta-p50 (%)” value was 45%. Cc1cccc(C(=O)N2CCCC[C@H]2COc2cccc(O)c2C=O)c1C=O [Compound 34, 2-[(2S)-2-[(2-formyl-3-hydroxyphenoxy)methyl]piperidine-1-carbonyl]-6-methylbenzaldehyde] was tested, and the “Delta-p50 (%)” value was 78%. For O=Cc1cccc(-c2ccccc2COc2cccc(O)c2C=O)n1 [Compound 24, 6-{2-[(2-formyl-3-hydroxyphenoxy)methyl]phenyl}pyridine-2-carbaldehyde], the “Delta-p50 (%)” value was 11%. For O=Cc1ccccc1C(=O)N1CCCCC[C@H]1COc1cccc(O)c1C=O [Compound 37], the “Delta-p50 (%)” value was 31.5%. In the case of O=Cc1nc(-c2ncccc2COc2cccc(O)c2C=O)cs1 [Compound 12, 4-{3-[(2-formyl-3-hydroxyphenoxy)methyl]pyridin-2-yl}-1,3-thiazole-2-carbaldehyde], the “Delta-p50 (%)” value is reported as 2.9%. In the case of COc1cccc(C(=O)N2CCOC[C@H]2COc2cccc(O)c2C=O)c1C=O [Compound 48, 2-[(3S)-3-[(2-formyl-3-hydroxyphenoxy)methyl]morpholine-4-carbonyl]-6-methoxybenzaldehyde], the “Delta-p50 (%)” value is reported as 70.3%. With O=Cc1ccc(C(=O)N2CCC[C@@H](COc3cccc(O)c3C=O)C2)cc1 [Compound 28, 2-{[(3R)-1-(4-formylbenzoyl)piperidin-3-yl]methoxy}-6-hydroxybenzaldehyde] the “Delta-p50 (%)” value was 45%. For O=Cc1ccc(F)cc1C(=O)N1CCCC[C@H]1COc1cccc(O)c1C=O [Compound 35, 4-fluoro-2-[(2S)-2-[(2-formyl-3-hydroxyphenoxy)methyl]piperidine-1-carbonyl]benzaldehyde], the “Delta-p50 (%)” value was 70%. With O=Cc1cnccc1C(=O)N1CCCC[C@H]1COc1cccc(O)c1C=O [Compound 53, 4-[(2S)-2-[(2-formyl-3-hydroxyphenoxy)methyl]piperidine-1-carbonyl]pyridine-3-carbaldehyde] the “Delta-p50 (%)” value was 71.9%. With O=Cc1ccccc1C(=O)N1CCC[C@@H](COc2cccc(O)c2C=O)C1 [Compound 26, 2-{[(3R)-1-(2-formylbenzoyl)piperidin-3-yl]methoxy}-6-hydroxybenzaldehyde] the “Delta-p50 (%)” value was 56%. CCOc1cccc(C(=O)N2CCOC[C@H]2COc2cccc(O)c2C=O)c1C=O [Compound 3, 2-ethoxy-6-[(3S)-3-[(2-formyl-3-hydroxyphenoxy)methyl]morpholine-4-carbonyl]benzaldehyde] was tested, and the “Delta-p50 (%)” value was 73.6%. In the case of O=Cc1cccc(C(=O)N2CCC[C@H](COc3cccc(O)c3C=O)C2)c1 [Compound 22, 2-{[(3S)-1-(3-formylbenzoyl)piperidin-3-yl]methoxy}-6-hydroxybenzaldehyde], the “Delta-p50 (%)” value is reported as 68.5%. With O=Cc1cccc(-c2cccnc2COc2cccc(O)c2C=O)n1 [Compound 32, 2′-[(2-formyl-3-hydroxyphenoxy)methyl]-[2,3′-bipyridine]-6-carbaldehyde] the “Delta-p50 (%)” value was 50%. For CCOc1cccc(C(=O)N2CCCC[C@H]2COc2cccc(O)c2C=O)c1C=O [Compound 39, 2-ethoxy-6-[(2S)-2-[(2-formyl-3-hydroxyphenoxy)methyl]piperidine-1-carbonyl]benzaldehyde], the “Delta-p50 (%)” value was 79.5%. CC(C)Oc1cccc(C(=O)N2CCCC[C@H]2COc2cccc(O)c2C=O)c1C=O [Compound 40, 2-[(2S)-2-[(2-formyl-3-hydroxyphenoxy)methyl]piperidine-1-carbonyl]-6-(propan-2-yloxy)benzaldehyde] was tested, and the “Delta-p50 (%)” value was 72.5%. In the case of O=Cc1cccc(C(=O)N2CCC[C@@H](COc3cccc(O)c3C=O)C2)c1 [Compound 27, 2-{[(3R)-1-(3-formylbenzoyl)piperidin-3-yl]methoxy}-6-hydroxybenzaldehyde], the “Delta-p50 (%)” value is reported as 74%. O=Cc1ccc(C(=O)N2CCC[C@H](COc3cccc(O)c3C=O)C2)cc1 [Compound 23, 2-{[(3S)-1-(4-formylbenzoyl)piperidin-3-yl]methoxy}-6-hydroxybenzaldehyde] was tested, and the “Delta-p50 (%)” value was 20%. COc1cccc(C(=O)N2CCCC[C@H]2COc2cccc(O)c2C=O)c1C=O [Compound 33, 2-[(2S)-2-[(2-formyl-3-hydroxyphenoxy)methyl]piperidine-1-carbonyl]-6-methoxybenzaldehyde] was tested, and the “Delta-p50 (%)” value was 84%.

Same assay, conditions: whole blood, compound 1.7 mM, equimolar to hemoglobin, 1 h at 37° C.
CC1(COc2cccc(O)c2C=O)COCCN1C(=O)c1cccc(O)c1C=O (stereo not drawn) [Compound 54, 2-((4-(2-formyl-3-hydroxybenzoyl)-3-methylmorpholin-3-yl)methoxy)-6-hydroxybenzaldehyde] was tested, and the “Delta-p50 (%)” value was 72.6%.
